{
  "source": "ChEMBL document CHEMBL1201862",
  "about": "“PubChem BioAssay data set” (2004)",
  "key": {"[1]": {"assay": "blockers of HIV-1 ZM109 envelope-driven cell-cell fusion – HeLa effector, CEM target cells, luciferase, cherry-pick, dose response (AID 652058)", "type": "functional, cell-based"}, "[2]": {"assay": "Dd2 malaria parasite growth inhibition potency – SYBR Green, dry powder samples, dose response (AID 1159566);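 further: potency for growth inhibition with lower SYBR green DNA signal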", "type": "functional, cell-based"}, "[3]": {"assay": "HIV-1 AD8 envelope cell-cell fusion blockers – cherry-pick, dose response (AID 652062);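 further: luciferase signal from cell-cell fusion driven by HIV-1 clade B AD8 Env; potency is for inhibitors of fusion seen as a drop in luminescence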", "type": "functional, cell-based"}, "[4]": {"assay": "growth inhibition of yeast DHODH-expressing 3D7 parasites – SYBR Green, dry powder samples, dose response (AID 1159570);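 further: parasite growth measured after 72 hours of compound exposure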", "type": "functional, cell-based"}, "[5]": {"assay": "growth inhibition of PfATP4-mutant resistant parasites – NITD609-resistant line, SYBR Green, dry powder, dose response (AID 1159571);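 further: parasites synchronized at ring stage by sorbitol before testing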", "type": "functional, cell-based"}, "[6]": {"assay": "P. falciparum Dd2 growth inhibitors, dose response, SYBR Green, cherry-picked samples (AID 1159567)", "type": "functional, cell-based"}, "[7]": {"assay": "blockers of HIV-1 envelope-mediated cell-cell fusion – cherry-pick, dose response (AID 652057)", "type": "functional, cell-based"}, "[8]": {"molecular_target": "Eukaryotic translation initiation factor 4E (Mus musculus, UniProt P63073)", "sequence (P63073 whole entry)": "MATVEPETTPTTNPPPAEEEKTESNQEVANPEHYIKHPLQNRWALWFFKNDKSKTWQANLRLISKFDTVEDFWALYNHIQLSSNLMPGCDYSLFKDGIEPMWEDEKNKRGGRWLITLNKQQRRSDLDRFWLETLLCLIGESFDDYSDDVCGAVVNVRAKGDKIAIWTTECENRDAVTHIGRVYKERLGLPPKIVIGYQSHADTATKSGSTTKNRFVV", "assay": "blockers of eIF4G binding by eIF4E – biochemical, TR-FRET, dose response (AID 855);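 further: potency for disrupting eIF4E binding to eIF4GI seen as loss of FRET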", "type": "functional"}, "[9]": {"assay": "A Cell Based Secondary Assay To Explore Cytotoxicity of Compounds that Sensitize Mycobacterium Tuberculosis to Beta-Lactam Antibiotics.", "type": "functional"}, "[10]": {"assay": "viability of HCT116 lacking mutant beta-catenin – cell-based, human colon tumor, dose response (AID 1045);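 further: HCT116 colon tumor cells with beta catenin knocked out; cells exposed to compound for 60 hours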", "type": "functional"}, "[11]": {"assay": "viability of PTEN-deleted HCT116 cells – cell-based, HCT116 PTEN knockout, dose response (AID 1047);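 further: HCT116 colon tumor cells with PTEN knocked out; cells exposed to compound for 60 hours before readout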", "type": "functional"}, "[12]": {"assay": "HEK-293T viability loss after treatment – luminescence, T-cell screen hits, cytotoxicity control for TCR NF-kB inhibitor project, dose response (AID 489026);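 further: cells exposed to compound about 14 hours before the viability readout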", "type": "functional, cell-based"}, "[13]": {"assay": "blockers of bursicon-stimulated LGR2 cAMP reporter – cell-based, HEK293, CRE-luciferase reporter, cherry pick, set 2, dose response (AID 743343);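 further: transfected cells were stimulated with diluted bursicon conditioned medium after compound addition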", "type": "functional"}, "[14]": {"assay": "blockade of melanocortin 4 receptor signaling – cell-based, plate reader, cherry pick, counter-screen for LGR2 antagonist project, dose response (AID 743444);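 further: transfected HEK 293 cells stimulated with alpha-MSH peptide; potency of inhibitors of the alpha-MSH evoked signal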", "type": "functional"}, "[15]": {"assay": "A549 cell cytotoxicity, dose response, cytotoxicity control, plate reader, cherry-pick, antagonist series (AID 743412)", "type": "functional, cell-based"}, "[16]": {"molecular_target": "T1, Carboxy-terminal domain RNA polymerase II polypeptide A small phosphatase 1 (Homo sapiens, UniProt Q9GZU7)", "T1 sequence (Q9GZU7 whole entry)": "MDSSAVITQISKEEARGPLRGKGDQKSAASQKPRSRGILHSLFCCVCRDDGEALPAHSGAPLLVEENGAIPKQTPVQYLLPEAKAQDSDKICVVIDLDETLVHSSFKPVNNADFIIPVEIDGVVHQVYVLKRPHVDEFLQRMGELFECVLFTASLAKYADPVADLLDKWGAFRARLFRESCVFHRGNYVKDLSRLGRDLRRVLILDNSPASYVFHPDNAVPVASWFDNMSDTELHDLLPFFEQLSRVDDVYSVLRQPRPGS", "assay": "CTDSP1 inhibitors, concentration-response, biochemical, absorbance readout, ultra-high-throughput screen actives (AID 540297)", "type": "functional"}, "Caspase-3": {"molecular_target": "T2, Caspase-3 (Homo sapiens, UniProt P42574)", "T2 sequence (P42574 whole entry)": "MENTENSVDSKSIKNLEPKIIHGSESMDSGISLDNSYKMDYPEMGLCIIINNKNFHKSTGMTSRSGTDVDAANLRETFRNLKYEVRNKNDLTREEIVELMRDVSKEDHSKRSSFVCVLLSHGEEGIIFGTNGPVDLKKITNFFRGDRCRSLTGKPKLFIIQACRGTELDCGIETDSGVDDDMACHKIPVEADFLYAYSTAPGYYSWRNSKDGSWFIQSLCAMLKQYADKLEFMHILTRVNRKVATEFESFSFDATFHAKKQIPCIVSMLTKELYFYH", "type": "functional"}, "[17]": {"molecular_target": "T3, Sentrin-specific protease 8 (Homo sapiens, UniProt Q96LD8)", "T3 sequence (Q96LD8 whole entry)": "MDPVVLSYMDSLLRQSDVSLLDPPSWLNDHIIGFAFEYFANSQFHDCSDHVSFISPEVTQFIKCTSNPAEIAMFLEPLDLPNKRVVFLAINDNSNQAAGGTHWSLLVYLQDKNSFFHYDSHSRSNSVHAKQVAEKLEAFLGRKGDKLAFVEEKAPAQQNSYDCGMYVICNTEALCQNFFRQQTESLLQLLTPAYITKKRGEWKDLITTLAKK", "type": "functional"}, "[18]": {"molecular_target": "T4, Sentrin-specific protease 7 (Homo sapiens, UniProt Q9BQF6)", "T4 sequence (Q9BQF6 whole entry)": "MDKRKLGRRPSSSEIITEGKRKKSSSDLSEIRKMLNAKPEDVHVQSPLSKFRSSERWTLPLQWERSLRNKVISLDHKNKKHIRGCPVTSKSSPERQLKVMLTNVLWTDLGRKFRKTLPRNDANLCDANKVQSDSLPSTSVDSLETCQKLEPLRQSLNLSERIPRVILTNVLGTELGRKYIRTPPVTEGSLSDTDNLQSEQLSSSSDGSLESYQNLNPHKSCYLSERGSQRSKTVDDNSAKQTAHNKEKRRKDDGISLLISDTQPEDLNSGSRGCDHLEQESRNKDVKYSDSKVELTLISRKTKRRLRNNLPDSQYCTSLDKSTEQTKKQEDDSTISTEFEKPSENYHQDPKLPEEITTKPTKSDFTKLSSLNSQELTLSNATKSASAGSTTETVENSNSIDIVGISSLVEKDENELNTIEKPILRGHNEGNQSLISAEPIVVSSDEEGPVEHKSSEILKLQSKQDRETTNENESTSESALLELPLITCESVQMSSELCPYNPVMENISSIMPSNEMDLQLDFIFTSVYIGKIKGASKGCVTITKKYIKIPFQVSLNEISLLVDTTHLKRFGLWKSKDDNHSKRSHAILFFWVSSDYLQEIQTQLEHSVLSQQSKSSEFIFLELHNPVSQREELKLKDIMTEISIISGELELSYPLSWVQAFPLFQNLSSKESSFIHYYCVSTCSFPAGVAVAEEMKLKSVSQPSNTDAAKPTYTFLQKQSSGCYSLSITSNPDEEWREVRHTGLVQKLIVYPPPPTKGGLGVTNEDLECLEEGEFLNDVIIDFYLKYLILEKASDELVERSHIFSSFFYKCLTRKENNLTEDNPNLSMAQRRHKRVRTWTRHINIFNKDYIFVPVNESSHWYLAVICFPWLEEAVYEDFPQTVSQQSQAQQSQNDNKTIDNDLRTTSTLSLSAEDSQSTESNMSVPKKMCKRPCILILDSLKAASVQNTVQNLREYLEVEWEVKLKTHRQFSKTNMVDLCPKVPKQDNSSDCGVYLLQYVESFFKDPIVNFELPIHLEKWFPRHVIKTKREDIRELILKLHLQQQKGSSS", "type": "functional"}, "[19]": {"molecular_target": "T5, Sentrin-specific protease 6 (Homo sapiens, UniProt Q9GZR1)", "T5 sequence (Q9GZR1 whole entry)": "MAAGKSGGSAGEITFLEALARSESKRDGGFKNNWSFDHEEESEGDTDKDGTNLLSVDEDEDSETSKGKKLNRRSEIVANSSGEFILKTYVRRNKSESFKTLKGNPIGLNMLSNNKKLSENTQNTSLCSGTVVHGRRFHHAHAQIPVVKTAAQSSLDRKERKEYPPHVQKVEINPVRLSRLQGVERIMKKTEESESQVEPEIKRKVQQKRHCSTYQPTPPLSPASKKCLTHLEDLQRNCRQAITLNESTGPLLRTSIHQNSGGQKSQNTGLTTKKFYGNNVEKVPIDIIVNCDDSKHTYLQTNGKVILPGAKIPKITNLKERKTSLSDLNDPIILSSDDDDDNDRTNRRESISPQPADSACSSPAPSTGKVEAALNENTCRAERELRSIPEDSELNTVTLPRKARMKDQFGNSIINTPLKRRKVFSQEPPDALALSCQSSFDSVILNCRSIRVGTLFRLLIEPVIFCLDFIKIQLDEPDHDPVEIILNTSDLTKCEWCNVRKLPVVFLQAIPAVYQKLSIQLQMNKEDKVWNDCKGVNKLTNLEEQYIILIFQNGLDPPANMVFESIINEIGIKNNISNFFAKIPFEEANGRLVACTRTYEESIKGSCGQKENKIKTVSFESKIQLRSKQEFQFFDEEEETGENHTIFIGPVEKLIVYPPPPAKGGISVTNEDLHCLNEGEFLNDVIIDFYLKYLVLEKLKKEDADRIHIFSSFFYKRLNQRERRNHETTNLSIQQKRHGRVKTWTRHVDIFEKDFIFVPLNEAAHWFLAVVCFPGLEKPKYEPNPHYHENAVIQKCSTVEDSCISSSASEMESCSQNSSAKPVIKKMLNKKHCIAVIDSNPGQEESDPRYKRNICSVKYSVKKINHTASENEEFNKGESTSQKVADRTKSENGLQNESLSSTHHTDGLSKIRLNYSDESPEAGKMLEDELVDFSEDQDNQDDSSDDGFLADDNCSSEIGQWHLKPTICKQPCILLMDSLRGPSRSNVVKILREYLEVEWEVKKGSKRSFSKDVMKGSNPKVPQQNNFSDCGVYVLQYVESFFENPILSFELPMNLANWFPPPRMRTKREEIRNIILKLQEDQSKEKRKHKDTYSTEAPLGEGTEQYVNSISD", "type": "functional"}},
  "note": "Calls of active or inactive are those of the source.",
  "data": [
    {"compound": "COc1ccc(S(=O)(=O)Nc2ccc3c(c2)CC(=O)N([C@H](C)CO)C[C@H](C)[C@H](CN(C)S(=O)(=O)c2ccc(C)cc2)O3)cc1", "values": [
      {"measurement": "AC50", "setting": "[1]", "value": "0.33 µM (active)"},
      {"measurement": "AC50", "setting": "[2]", "value": "1.88 µM (active)"},
      {"measurement": "AC50", "setting": "[3]", "value": "1.01 µM (active)"},
      {"measurement": "AC50", "setting": "[4]", "value": "1.89 µM (active)"},
      {"measurement": "AC50", "setting": "[5]", "value": "1.6 µM (active)"},
      {"measurement": "AC50", "setting": "[6]", "value": "1.89 µM (active)"},
      {"measurement": "AC50", "setting": "[7]", "value": "< 0.26 µM (active)"}
    ]},
    {"compound": "COc1ccc([C@H]2[C@H](C(C)=O)N3N=Cc4ccccc4C3C23C(=O)OC(C)(C)OC3=O)cc1", "note": "(stereo partly specified)", "values": [
      {"measurement": "IC50", "setting": "[8]", "value": "> 64 µM (inactive)"}
    ]},
    {"compound": "COc1ccc(C(=O)Nc2ccccc2C(=O)NC(C(=O)NCc2ccco2)C(C)C)cc1", "note": "(stereo unspecified)", "values": [
      {"measurement": "CC50", "setting": "[9]", "value": "16.9 µM (active)"},
      {"measurement": "EC50", "setting": "[10]", "value": "8.16 µM (active)"},
      {"measurement": "EC50", "setting": "[11]", "value": "4.63 µM (active)"}
    ]},
    {"compound": "COc1cc(C(=O)Nc2ccc3c(c2)CCN3C(C)=O)cc(OC)c1OC", "values": [
      {"measurement": "IC50", "setting": "[12]", "value": "> 80 µM (inactive)"}
    ]},
    {"compound": "Cc1ccc(S(=O)(=O)N2CCCCC2)cc1NC(=O)c1ccc2c(=O)n3c(nc2c1)CCCCC3", "values": [
      {"measurement": "AC50", "setting": "[13]", "value": "12.8 µM (active)"},
      {"measurement": "AC50", "setting": "[14]", "value": "12.4 µM (active)"},
      {"measurement": "AC50", "setting": "[15]", "value": "26.8 µM (active)"}
    ]},
    {"compound": "O=C(Cc1cccs1)Nc1ccc(S(=O)(=O)N2CCCC2)cc1", "values": [
      {"measurement": "IC50", "setting": "[8]", "value": "50 µM (inactive)"},
      {"measurement": "IC50", "setting": "[16]", "value": "5.04 µM (active)"}
    ]},
    {"compound": "O=C(O)C(Oc1ccc2cc(-c3ccc(Cl)cc3)c(=O)oc2c1)c1ccccc1", "note": "(stereo unspecified)", "values": [
      {"measurement": "IC50", "setting": "Caspase-3", "value": "38.3 µM (active)"},
      {"measurement": "IC50", "setting": "[17]", "value": "31.8 µM (active)"},
      {"measurement": "IC50", "setting": "[18]", "value": "28.7 µM (active)"},
      {"measurement": "IC50", "setting": "[19]", "value": "31.3 µM (active)"}
    ]},
    {"compound": "Cc1ccc(OCc2nnc(-c3ccccn3)[nH]2)cc1", "values": [
      {"measurement": "IC50", "setting": "[8]", "value": "> 64 µM (inactive)"}
    ]},
    {"compound": "O=C(Nc1ccc2ncccc2c1)c1cccc(Br)c1", "values": [
      {"measurement": "IC50", "setting": "Caspase-3", "value": "32.1 µM (active)"},
      {"measurement": "IC50", "setting": "[17]", "value": "28.7 µM (active)"},
      {"measurement": "IC50", "setting": "[18]", "value": "8.67 µM (active)"},
      {"measurement": "IC50", "setting": "[19]", "value": "29.1 µM (active)"}
    ]}
  ]
}
